The results in this text go back to publication PMC10216605, “Developing In Vitro Models to Define the Role of Direct Mitochondrial Toxicity in Frequently Reported Drug-Induced Rhabdomyolysis” (Biomedicines, 2023).

Where two headings read alike, the source gives them in different places. Bounds are passed on as bounds.

The test system of data set [1] is L6 cells. Conditions: 6 h exposure.
Method: The mitochondrial stress test allowed confirmation of mitotoxicity and further identification of the specific mechanisms through quantification of OXPHOS parameters: basal respiration (BR), ATP-linked respiration (ALR), and spare respiratory capacity (SRC). On the day of the assay, for the analysis of the acute injection of the drug on differentiated myotubes, the differentiation media was replaced with 175 µL of unbuffered Seahorse Assay media supplemented with 25 mM of glucose, 4 mM of L-glutamine, 1 mM of sodium pyruvate, and 5 mM of HEPES pre-warmed to 37 °C, then incubated in a CO2 free incubator at 37 °C for 1 h. Alternately, in the pre-treatment strategy, differentiated myotubes were pre-treated with the drug for 5 h in differentiation medium, then transferred to a CO2-free incubator at 37 °C for 1 h. Next, the differentiation media were replaced with 175 µL of unbuffered Seahorse Assay media supplemented with the constituents stated above. Briefly, using the XF^e96 instrument (Seahorse extracellular flux analyser, Agilent Technologies, Santa Clara, CA, USA), the oxygen partial pressure in each well was allowed to reach equilibrium for 10 min. The oxygen consumption rate (OCR) was measured three times at baseline; then, there was a 3 min mix for each measurement followed by a 3 min wait. […] In the acute injection method, the drug injection was only performed at the end of the basal measurement cycles, followed by the mitochondrial inhibitors described above. The duration of the assay was 120 min (acute injection) and 90 min (pre-treatment strategy). From each mitochondrial stress test was determined the OCR parameters of non-mitochondrial respiration (NMR = lowest measurement after rotenone/antimycin A); basal respiration (BR = last measurement before oligomycin − NMR); proton-leak (PL = BR − lowest respiration after oligomycin); ATP-linked respiration (ALR = BR − PL); maximum respiratory capacity (MRC = highest measurement after FCCP − NMR); and spare respiratory capacity (SRC = MRC − BR) [42, 43].
Data set [2] has as its system L6 cells. Briefly: Acute metabolic switch assay (cellular ATP content, glucose vs galactose media) in L6 differentiated myotubes. To be noted: for IC50: Rattus norvegicus, L6, 2 h. On the procedure:
They were then seeded into collagen-coated wells (50 µg/mL in 0.02 M of acetic acid) at a density of 16,000 cells/100 μL/well (96 well plates) and 10,000 cells/100 μL/well (XF 96-well cell culture microplates). The cells were next incubated for 24 h in complete growth medium to promote adherence, after which the growth medium was removed and the cells washed twice with 1× HBSS. The L6 myoblasts were then cultured in differentiation medium consisting of high-glucose DMEM (25 mM) supplemented with L-glutamine (4 mM), sodium pyruvate (1 mM), HEPES (5 mM), and horse serum (2% v/v). Fresh differentiation medium was provided every 48 h for 7 days.
(§1) On the day of the assay, the media on the differentiated myotubes were replaced with either serum-free high-glucose (DMEM, 25 mM of glucose, 4 mM of L-glutamine, 1 mM of sodium pyruvate, and 5 mM of HEPES) or serum-free galactose (DMEM, 10 mM of galactose, 6 mM of L-glutamine, 1 mM of sodium pyruvate, and 5 mM of HEPES) media (100 µL) for 2 h (37 °C, 5% CO2). The glucose and galactose media were removed and replaced with drug-dosing solutions in either glucose or galactose media as appropriate, before incubation (2 h, 37 °C, 5% CO2). […] Vehicle control was included in each experiment.
(§2) The cellular ATP content was measured using a bioluminescence assay kit, alongside the concomitant measurement of protein using a bicinchoninic acid (BCA) assay kit to normalise ATP data to the total protein. Briefly, the cells were lysed using ATP lysis buffer (50 µL/well) and the plate was shaken (5 min). According to the manufacturer’s instructions, 40 µL of ATP reagent was added to each well containing 5 µL of cell lysate in a white 96-well plate. The […] luminescence signal was measured immediately using a plate reader (Varioskan, Thermo Scientific, Schaumburg, IL USA).

Another data set deals with HSKMDC. Briefly: Mitochondrial stress test (Seahorse XFe96 respirometry) in HSKMDC. In kind it is cell-based, human. Conditions: acute injection. On the procedure: On the day of the assay, for the analysis of the acute injection of the drug on differentiated myotubes, the differentiation media was replaced with 175 µL of unbuffered Seahorse Assay media supplemented with 25 mM of glucose, 4 mM of L-glutamine, 1 mM of sodium pyruvate, and 5 mM of HEPES pre-warmed to 37 °C, then incubated in a CO2 free incubator at 37 °C for 1 h. Alternately, in the pre-treatment strategy, differentiated myotubes were pre-treated with the drug for 5 h in differentiation medium, then transferred to a CO2-free incubator at 37 °C for 1 h. Next, the differentiation media were replaced with 175 µL of unbuffered Seahorse Assay media supplemented with the constituents stated above. Briefly, using the XF^e96 instrument (Seahorse extracellular flux analyser, Agilent Technologies, Santa Clara, CA, USA), the oxygen partial pressure in each well was allowed to reach equilibrium for 10 min. The oxygen consumption rate (OCR) was measured three times at baseline; then, there was a 3 min mix for each measurement followed by a 3 min wait. […] In the acute injection method, the drug injection was only performed at the end of the basal measurement cycles, followed by the mitochondrial inhibitors described above. The duration of the assay was 120 min (acute injection) and 90 min (pre-treatment strategy). From each mitochondrial stress test was determined the OCR parameters of non-mitochondrial respiration (NMR = lowest measurement after rotenone/antimycin A); basal respiration (BR = last measurement before oligomycin − NMR); proton-leak (PL = BR − lowest respiration after oligomycin); ATP-linked respiration (ALR = BR − PL); maximum respiratory capacity (MRC = highest measurement after FCCP − NMR); and spare respiratory capacity (SRC = MRC − BR).

Data set [3] in a line: FAERS analysis of reported rhabdomyolysis cases per suspect drug. To be noted: for (%) of total rhabdomyolysis cases / Number of Rhabdomyolysis Cases / Number of Rhabdomyolysis Cases (n = 6583): FAERS 2004 to 31 March 2020; for (%) of total rhabdomyolysis cases: of 27,140 cases; for Number of Rhabdomyolysis Cases: total 27,140 rhabdomyolysis cases, some cases with more than one suspected drug; for Number of Death Cases (n = 576): monotherapy rhabdomyolysis cases with fatal outcome; for (%) of monotherapy rhabdomyolysis cases: of 6583 cases; for Number of Rhabdomyolysis Cases (n = 6583): suspected drug reported as a single drug used (monotherapy).
Method: Due to the quarterly updating of the database by the FDA, the searches were performed using the term “rhabdomyolysis” on one occasion to ensure the data were extracted at that specified period. All individual files were downloaded and saved from this one timepoint to specify the analysis period used in this study. Further refinement was performed using Microsoft Excel to extract only cases where the suspect drug was reported as a monotherapy, using the generic name of the suspect drugs. To ensure data accuracy, any case reported by a consumer or company underwent further checks to ensure it had not been previously reported by a healthcare provider, by confirming that no duplication of case ID was present.

Data set [4] deals with primary human skeletal muscle-derived cells (HSKMDC). Put plainly: cells. The format is cell-based. Conditions: for IC50: Homo sapiens, Myotube, 2 h. On the procedure: (§3) HSKMDC myoblasts were collected by trypsinisation using trypsin-EDTA (0.05%) upon reaching 50% confluence and seeded into collagen-coated wells, at a density of 20,000 cells/100 μL/well (96 well plates) and 25,000 cells/100 μL/well (XF 96-well cell culture microplates). After 24 h, the cells were washed twice with 1× PBS (-/-), and growth media were replaced with differentiation medium containing DMEM low-glucose media (glucose 5 mM), L-glutamine (4 mM), sodium pyruvate (1 mM) supplemented with 2% (v/v) horse serum, and (10 nM) human insulin. The medium was refreshed every 48 h for 5 days.
as §1
Cytotoxicity was detected using a lactate dehydrogenase (LDH) assay kit. Briefly, according to the manufacturers’ instructions, 25 µL of the supernatant and 10 µL of cell lysate were incubated with 50 µL of LDH reagent for 30 min in the dark. Samples were read at 490 nm using a plate reader.

For data set [5] the test system is unchanged. Briefly: cells. The format is cell-based. To be noted: 2 h exposure; for IC50: Homo sapiens, Myotube, mean ± S.D. (n = 3). As for the experimental part:
as §3, §1, §2

Setting [6] is: L6 cells, 2 h exposure, based on IC50-ATPglu vs IC50-ATPgal.

Regarding `CC(C)OC(=O)C(C)(C)Oc1ccc(C(=O)c2ccc(Cl)cc2)cc1` [Fenofibrate], the “Classification from pattern of changes in BR, ALR and SRC” value (“Classification from pattern of changes” below) with L6 cells [1] is listed as “direct inhibitors of the electron transport chain”. The “Mitotoxicity classification in acute metabolic switch assay” value (“Mitotoxicity classification” below) in the data set with L6 cells [2] (setting [6]) was “containing a mitochondrial liability”. In addition, in the data set on HSKMDC, the “Classification from pattern of changes” value is given as “direct inhibitors of the electron transport chain”; the “Concentration at which significant reduction of ATP-linked respiration was first observed” value was found to be 3.6 µM. In addition, in data set [3], the “(%) of total rhabdomyolysis cases” value stood at 1.7%, the “Number of Rhabdomyolysis Cases” value was 449, the “Number of Death Cases (n = 576)” value is listed as 6 and the “(%) of monotherapy rhabdomyolysis cases” value came to 1.9%. Moreover, the “Number of Rhabdomyolysis Cases (n = 6583)” value (shortened to “Number … (n = 6583)”) in data set [3] came to 126.

As a reminder, the IC50 is the midpoint of a concentration-inhibition curve. Turning to `CC(C)C[C@H](CN)CC(=O)O` [Pregabalin], the “Classification from pattern of changes” value with L6 cells [1] is on record as “direct inhibitors of the electron transport chain”. Besides, the IC50 with L6 cells [2] (read-out: ATP IC50 Glucose) is above 300 µM. Moreover, in data set [3], the “(%) of total rhabdomyolysis cases” value was 1.6%, the “Number of Rhabdomyolysis Cases” value was 442, the “Number of Death Cases (n = 576)” value is listed as 13 and the “(%) of monotherapy rhabdomyolysis cases” value worked out at 2.0%. Besides, the “Number … (n = 6583)” value in data set [3] is 132.

With `CC(C)c1cccc(C(C)C)c1O` [Propofol], the “Classification from pattern of changes” value in the data set on L6 cells [1] is listed as “direct inhibitors of the electron transport chain”. Further, in the data set with L6 cells [2], the “Mitotoxicity classification” value is “multi-mechanistic”. Also, in the data set on L6 cells [2] (read-out: ATP IC50 Galactose), the IC50 was found to be 242 ± 13.4 µM. In addition, in the data set with L6 cells [2] (read-out: ATP IC50 Glucose), the IC50 is above 300 µM. For the same molecule, in data set [3], the “(%) of total rhabdomyolysis cases” value is listed as 1.6%, the “Number of Rhabdomyolysis Cases” value stood at 434, the “Number of Death Cases (n = 576)” value came to 70 and the “(%) of monotherapy rhabdomyolysis cases” value turned out to be 2.7%. In addition, the “Number … (n = 6583)” value in data set [3] was 179. Moreover, the “ROR (reported odds ratio)” value in data set [3] (rhabdomyolysis with suspected drug vs all other drugs in FAERS) was determined as 2.2.

Regarding `Cc1nc2n(c(=O)c1CCN1CCC(c3noc4cc(F)ccc34)CC1)CCCC2` [Risperidone], the “Classification from pattern of changes” value with L6 cells [1] and in the data set on HSKMDC was “direct inhibitors of the electron transport chain” throughout. The “Mitotoxicity classification” value in the data set on L6 cells [2] (setting [6]) is on record as “containing a mitochondrial liability”. Besides, in the data set with HSKMDC, the “Concentration at which significant reduction of ATP-linked respiration was first observed” value is 11 µM. For the same molecule, the “Number of Death Cases (n = 576)” value in data set [3] turned out to be 7.

Regarding `C=C(C)[C@H]1Cc2c(ccc3c2O[C@@H]2COc4cc(OC)c(OC)cc4[C@@H]2C3=O)O1` [Rotenone], in data set [4] (HSKMDC, 2 h exposure, galactose media), the “IC50-LDH gal/ IC50-ATP al” value is reported as above 312.5. In addition, the half-inhibitory concentration (IC50) in data set [4] (read-out: LDH IC50 Galactose) was above 5 µM; in data set [4] (read-out: LDH IC50 Glucose), above 5 µM; with L6 cells [2] (read-out: ATP IC50 Galactose), 0.036 ± 0.008 µM; in the data set with L6 cells [2] (read-out: ATP IC50 Glucose) it was above 5 µM; in data set [5] (galactose serum-free media, read-out: ATP IC50 Galactose), 0.016 ± 0.007 µM; in data set [5] (glucose serum-free media, read-out: ATP IC50 Glucose) it was above 5 µM. Further, the IC50-ATPglu/IC50-ATPgal with L6 cells [2] (L6 cells, 2 h exposure, […]) was >138.9 (<0.0001); in data set [5] it was >318.4 (<0.0001); in data set [5] (listed as rotenone), above 318.
